# Patent publication US7691848B2, “Pyrrolobenzodiazepine arylcarboxamides and derivatives thereof as follicle-stimulating hormone receptor antagonists” (Wyeth, priority 2005, dated 2010)
# Assays:
# human FSH receptor = target: T1, human FSH receptor (Homo sapiens, UniProt P23945); assay: Follicle-Stimulating Hormone Receptor-Dependent Cre-Luciferase Reporter Gene Assay (CHO FSH-R 6CRE-Luc cells); assay type: cell-based; settings: for inhibition at 30 µM: 2-dose format, concentration in parentheses 30 μM, inhibition of the response to EC50 of FSH; for IC50: dose-response format, in presence of EC50 of purified human FSH
# T1 construct: host or cells: CHO-K1 (CHO FSH-R 6CRE-Luc, 1D7 cells)
# T1 sequence (P23945 18-695): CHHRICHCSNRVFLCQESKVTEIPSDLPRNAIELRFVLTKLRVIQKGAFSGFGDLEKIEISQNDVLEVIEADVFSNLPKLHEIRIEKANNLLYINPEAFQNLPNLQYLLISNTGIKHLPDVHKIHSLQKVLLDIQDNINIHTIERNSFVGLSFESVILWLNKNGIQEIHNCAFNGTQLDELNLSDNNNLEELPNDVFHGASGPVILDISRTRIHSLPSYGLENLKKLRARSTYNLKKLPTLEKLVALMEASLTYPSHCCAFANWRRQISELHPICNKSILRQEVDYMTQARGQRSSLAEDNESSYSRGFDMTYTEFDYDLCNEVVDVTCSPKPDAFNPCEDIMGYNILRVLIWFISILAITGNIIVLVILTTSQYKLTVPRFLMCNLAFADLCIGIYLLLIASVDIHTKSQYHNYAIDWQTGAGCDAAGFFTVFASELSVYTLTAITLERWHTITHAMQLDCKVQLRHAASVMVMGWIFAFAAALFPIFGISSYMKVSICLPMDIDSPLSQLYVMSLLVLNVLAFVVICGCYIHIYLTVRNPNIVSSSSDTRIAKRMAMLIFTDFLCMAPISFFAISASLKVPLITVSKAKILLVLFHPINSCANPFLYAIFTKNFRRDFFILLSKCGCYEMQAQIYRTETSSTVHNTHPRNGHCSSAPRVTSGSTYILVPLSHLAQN
# Excerpt: Follicle-Stimulating Hormone Receptor-Dependent Cre-Luciferase Reporter Gene Assay for the Identification of Follicle-Stimulating Hormone (FSH) Antagonists
# A Chinese hamster ovarian cell line that stably produces the human FSH receptor and a luciferase reporter gene regulated by cAMP response elements was used to identify and determine the relative potencies of human FSH receptor antagonists. See for example, Kelton, C. A., et al. Mol. Cell. Endocrinol. 89:141-151 (1992), Tilly, J. L., et al. Endocrinology 131:799-806(1992), and George, S. E., et al. J. Biomol. Screening 2:235-240 (1997).
# Compound Vehicle: Stock compounds were solubilized in an appropriate vehicle, e.g., phosphate buffered saline (PBS) or dimethyl sulfoxide (DMSO), at 30 mM. The compounds were subsequently diluted in DMSO to working dilutions of 1 and 20 or 30 mM for 2-dose testing format and 1 μM-10 mM for dose-response format. The DMSO dilutions were diluted 500-fold in sterile growth medium [D-MEM/F-12 (GIBCO/BRL; Grand Island, NY) containing 15 mM HEPES, 2 mM 1-glutamine, pyridoxine hydrochloride, phenol red and 5% FetalClone® II (HyClone Laboratories, Inc; Logan, Utah), 0.2% DMSO, 100 units penicillin G/ml, and 100 μg streptomycin sulfate/ml (GIBCO/BRL)]. The concentration of the vehicle in each of the compound dilutions was the same.
# Positive Controls: Purified human FSH (>98%) was purchased from Cortex Biochem, Inc. (San Leandro, Calif.) and 3-[(2S*,5R*)-5-{[2-(1H-Indol-3-yl)-ethylcarbamoyl]-methyl}-4-oxo-2-(5-phenylethynyl-thiophen-2-yl)-thiazolidin-3-yl]-benzamide (an FSH-R thiazolidinone antagonist) was prepared by processes described by R. A. Scheuerman et al. in U.S. Pat. No. 6,426,357 (Affymax).
# The CHO FSH-R 6CRE-Luc cells (1D7 cells) were obtained from Affymax (Palo Alto, Calif.). These Chinese hamster ovary cells (CHO-K1) were engineered genetically to stably express the recombinant human FSH receptor gene and a luciferase reporter gene under the regulation of 6 copies of a cAMP response element. The cells were plated one day prior to treatment into 96-well white opaque plates at a density of 50,000 cells/100 μl/well in growth medium. On the day of treatment, the growth medium was removed from the wells by aspiration and 50 μl of fresh growth medium was added to each well. The cells were incubated at 37° C. in a humidified incubator with 5% CO2/95% air.
# The treated cells were incubated for 4 hours at 37° C. in a humidified incubator with 5% CO2/95% air. At the end of the incubation period, luciferase activity was measured by chemiluminescence using a commercially available kit (LucScreen, Tropix, Inc., Bedford, Mass.) according to the manufacturer's specifications, except that Buffer 1 and Buffer 2 were mixed together in equal proportion prior to the addition of 100 μl of the combined reagents to each well. Chemiluminescence was detected using a luminometer (EG & G Berthold Microlumat LB 96 P, Wallac, Gaithersburg, Md.) with chemiluminescence measured for 1 sec/well. Background luminescence was measured for each well prior to the addition of the LucScreen reagent.
# In the 96-well 2-dose format, each compound was tested in duplicate at each dose. […] One plate was used to test a maximum of 22 compounds.
# The EC50 of purified human FSH alone was tested in triplicate with each test compound. The doses chosen to test each compound were extrapolated from the initial 2-dose screening process. Along with the test compounds, purified human FSH also was tested in a dose response (0.03, 0.1, 0.3, 1, 3, 10, and 30 ng/ml) for a positive control and quality control. One plate was used for 3 test compounds and the FSH positive control.
# Luciferase activity is expressed as relative light units/sec/well. Luciferase activity in antagonist was compared to the appropriate negative and positive controls. For 2-dose testing, results are reported as luciferase activity and are expressed as percent inhibition of the response obtained from the EC50 of FSH.
SMILES,melting point [°C],inhibition at 30 µM (human FSH receptor) [%],IC50 (human FSH receptor) [µM]
"Cc1cccc(CNC(=O)c2ccc3n2Cc2ccccc2N(C(=O)COc2ccc(Cl)cc2)C3)c1 [Example 71, 10-[(4-CHLOROPHENOXY)ACETYL]-N-(3-METHYLBENZYL)-10,11-DIHYDRO-5H-PYRROLO[2,1-C][1,4]BENZODIAZEPINE-3-CARBOXAMIDE]",130 to 131,7,–
O=C(NCC(O)c1ccccc1)c1ccc2n1Cc1ccccc1N(C(=O)COc1ccc(Cl)cc1)C2 (stereo not drawn) [Example 73],157 to 158,–,25.1
"O=C(Nc1ccc(-c2ccccc2)cc1)c1ccc2n1Cc1ccccc1N(C(=O)COc1ccc(Cl)cc1)C2 [Example 74, N-(1,1′-BIPHENYL-4-YL)-10-[(4-CHLOROPHENOXY)ACETYL]-10,11-DIHYDRO-5H-PYRROLO[2,1-C][1,4]BENZODIAZEPINE-3-CARBOXAMIDE]",201 to 202,6,–
"COC(=O)c1ccc(CNC(=O)c2ccc3n2Cc2ccccc2N(C(=O)COc2ccc(Cl)cc2C)C3)cc1 [Example 77, METHYL 4-{[({10-[(4-CHLORO-2-METHYLPHENOXY)ACETYL]-10,11-DIHYDRO-5H-PYRROLO[2, 1-C][1,4]BENZODIAZEPIN-3-YL}CARBONYL)AMINO]METHYL}BENZOATE]",165 to 167,3.5,–
"COc1cc(CNC(=O)c2ccc3n2Cc2ccccc2N(C(=O)COc2ccc(Cl)cc2C)C3)ccc1O [Example 78, 10-[(4-CHLORO-2-METHYLPHENOXY)ACETYL]-N-(4-HYDROXY-3-METHOXYBENZYL)-10,11-DIHYDRO-5H-PYRROLO[2,1-C][1,4]BENZODIAZEPINE-3-CARBOXAMIDE]",167 to 168,33,–
Cc1cc(-c2ccccc2C)ccc1NC(=O)c1ccc2n1Cc1ccccc1N(C(=O)COc1ccc(Cl)cc1)C2 [Example 79],159 to 161,13,–
Cc1ccccc1-c1ccc(C(=O)N2Cc3ccc(C(=O)NCc4ccc(C(=O)c5ccccc5)cc4)n3Cc3ccccc32)cc1C [Example 88],148 to 150,–,> 30
"COc1cc(CNC(=O)c2ccc3n2Cc2ccccc2N(C(=O)c2ccc(-c4ccccc4C)c(OC)c2)C3)cc(OC)c1 [Example 89, N-(3,5-DIMETHOXYBENZYL)-10-[(2-METHOXY-2′-METHYL-1,1′-BIPHENYL-4-YL)CARBONYL]-10,11-DIHYDRO-5H-PYRROLO[2,1-C][1,4]BENZODIAZEPINE-3-CARBOXAMIDE]",175,–,> 30
Cc1ccccc1-c1ccc(C(=O)N2Cc3ccc(C(=O)NCC(c4ccccc4)c4ccccc4)n3Cc3ccccc32)cc1C [Example 90],126 to 128,–,> 30
Cc1ccccc1-c1ccc(C(=O)N2Cc3ccc(C(=O)NCc4ccc(N(C)C)cc4)n3Cc3ccccc32)cc1C [Example 91],154 to 155,–,> 30
Cc1ccccc1-c1ccc(C(=O)N2Cc3ccc(C(=O)NC4CCc5ccccc54)n3Cc3ccccc32)cc1C (stereo not drawn) [Example 92],122 to 124,–,> 30
Cc1ccccc1-c1ccc(C(=O)N2Cc3ccc(C(=O)NC4Cc5ccccc5C4)n3Cc3ccccc32)cc1C [Example 93],219 to 220,–,> 30
"O=C(NC1CCCc2ccccc21)c1ccc2n1Cc1ccccc1N(C(=O)COc1ccc(Cl)cc1)C2 (stereo not drawn) [Example 94, 10-[(4-CHLOROPHENOXY)ACETYL]-N-(1,2,3,4-TETRAHYDRONAPHTHALEN-1-YL)-10,11-DIHYDRO-5H-PYRROLO[2,1-C][1,4]BENZODIAZEPINE-3-CARBOXAMIDE]",199 to 200,–,> 30

# Continued, values first:
melting point [°C],inhibition at 30 µM (human FSH receptor) [%],IC50 (human FSH receptor) [µM],SMILES
143 to 145,–,> 30,"O=C(NCc1cccc(C(F)(F)F)c1)c1ccc2n1Cc1ccccc1N(C(=O)COc1ccc(Cl)cc1)C2 [Example 72, 10-[(4-CHLOROPHENOXY)ACETYL]-N-[3-(TRIFLUOROMETHYL)BENZYL]-10,11-DIHYDRO-5H-PYRROLO[2,1-C][1,4]BENZODIAZEPINE-3-CARBOXAMIDE]"
150,–,> 30,"O=C(NCc1ccc(Cl)c(Cl)c1)c1ccc2n1Cc1ccccc1N(C(=O)CSc1ccc(Br)cc1)C2 [Example 81, 10-{[(4-BROMOPHENYL)THIO]ACETYL}-N-(3,4-DICHLOROBENZYL)-10,11-DIHYDRO-5H-PYRROLO[2,1-C][1,4]BENZODIAZEPINE-3-CARBOXAMIDE]"
168,37,–,"COc1cc(CNC(=O)c2ccc3n2Cc2ccccc2N(C(=O)CSc2ccc(Br)cc2)C3)ccc1O [Example 82, 10-{[(4-BROMOPHENYL)THIO]ACETYL}-N-(4-HYDROXY-3-METHOXYBENZYL)-10,11-DIHYDRO-5H-PYRROLO[2,1-C][1,4]BENZODIAZEPINE-3-CARBOXAMIDE]"
131 to 132,24,–,"Cc1ccc(CNC(=O)c2ccc3n2Cc2ccccc2N(C(=O)CSc2ccc(Br)cc2)C3)cc1 [Example 83, 10-{[(4-BROMOPHENYL)THIO]ACETYL}-N-(4-METHYLBENZYL)-10,11-DIHYDRO-5H-PYRROLO[2,1-C][1,4]BENZODIAZEPINE-3-CARBOXAMIDE]"
154 to 155,27,–,O=C(NCc1ccc2c(c1)OCO2)c1ccc2n1Cc1ccccc1N(C(=O)CSc1ccc(Br)cc1)C2 [Example 84]
102,24,–,"O=C(NCc1cccc(C(F)(F)F)c1)c1ccc2n1Cc1ccccc1N(C(=O)CSc1ccc(Br)cc1)C2 [Example 85, 10-{[(4-BROMOPHENYL)THIO]ACETYL}-N-[3-(TRIFLUOROMETHYL)BENZYL]-10,11-DIHYDRO-5H-PYRROLO[2,1-C][1,4]BENZODIAZEPINE-3-CARBOXAMIDE]"
168 to 169,35,–,"O=C(NCCc1ccc(O)cc1)c1ccc2n1Cc1ccccc1N(C(=O)CSc1ccc(Br)cc1)C2 [Example 86, 10-{[(4-BROMOPHENYL)THIO]ACETYL}-N-[2-(4-HYDROXYPHENYL)ETHYL]-10,11-DIHYDRO-5H-PYRROLO[2,1-C][1,4]BENZODIAZEPINE-3-CARBOXAMIDE]"
163 to 165,3,–,"O=C(NC1CCCc2ccccc21)c1ccc2n1Cc1ccccc1N(C(=O)CSc1ccc(Br)cc1)C2 (stereo not drawn) [Example 87, 10-{[(4-BROMOPHENYL)THIO]ACETYL}-N-(1,2,3,4-TETRAHYDRONAPHTHALEN-1-YL)-10,11-DIHYDRO-5H-PYRROLO[2,1-C][1,4]BENZODIAZEPINE-3-CARBOXAMIDE]"
